In patent US20050074879A1, “Antisense oligonucleotide modulation of STAT3 expression” (priority 2000, published 2005):
Oligonucleotides are written 5' to 3', each unit as a sugar letter and its base; * is a phosphorothioate linkage, no mark a phosphodiester; rarer units and linkages stand in square brackets, end groups in braces. Plain capitals give the bases only. e = 2'-O-(2-methoxyethyl) (MOE); [5mC] = 5-methylcytosine; d = 2'-deoxy (DNA)

Each substance was assayed on Human STAT3 mRNA (assay: Inhibition of human STAT3 mRNA levels in A549 cells, 75 nM, real-time PCR (Table 13)). Settings: 75 nM oligonucleotide with LIPOFECTIN, real-time PCR PPS 199, percent inhibition relative to untreated control cells, average of 2 experiments.
Format: cell-based
In short: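 A549 cells at 65–75% confluency were transfected in duplicate with 75 nM oligonucleotide plus […] Lipofectin for 4–7 h at 37° C and harvested 16–24 h later. STAT3 mRNA was quantified by real-time RT-PCR with primer-probe set PPS 199 and normalized to RiboGreen total RNA. Inhibition is relative to untreated controls.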

Compared with “337356 (antisense eA*eT*eG*eG*eT*dA*dT*dT*dG*d[5mC]*dT*dG*d[5mC]*dA*dG*eG*eT*e[5mC]*eG*eT) [compound 337356]”, “337357 (antisense eG*eG*eT*e[5mC]*eA*dA*dT*dG*dG*dT*dA*dT*dT*dG*d[5mC]*eT*eG*e[5mC]*eA*eG) [compound 337357]” is lower in “% Inhib (inhibition of human STAT 3 mRNA levels)” value (shortened to “% Inhib”): 75% for the first, 71% for the second.

Compared with “337358 (antisense eG*eA*e[5mC]*eA*eT*d[5mC]*dG*dG*d[5mC]*dA*dG*dG*dT*d[5mC]*dA*eA*eT*eG*eG*eT) [compound 337358]”, “337359 (antisense e[5mC]*eA*eA*eT*eG*dA*dA*dT*d[5mC]*dT*dA*dA*dA*dG*dT*eG*e[5mC]*eG*eG*eG) [compound 337359]” is lower in “% Inhib” value: 77% for the first, 57% for the second.

Compared with “337360 (antisense eT*eG*e[5mC]*eA*eT*d[5mC]*dA*dA*dT*dG*dA*dA*dT*d[5mC]*dT*eA*eA*eA*eG*eT) [compound 337360]”, “337361 (antisense e[5mC]*eA*eA*eA*e[5mC]*dT*dG*d[5mC]*dA*dT*d[5mC]*dA*dA*dT*dG*eA*eA*eT*e[5mC]*eT) [compound 337361]” is lower in “% Inhib” value: 71% for the first, 61% for the second.

Going from “337362 (antisense eA*eT*eT*eT*e[5mC]*d[5mC]*dA*dA*dA*d[5mC]*dT*dG*d[5mC]*dA*dT*e[5mC]*eA*eA*eT*eG) [compound 337362]” to “337363 (antisense eA*eA*e[5mC]*eT*eG*d[5mC]*d[5mC]*d[5mC]*dT*d[5mC]*d[5mC]*dT*dG*d[5mC]*dT*eG*eA*eG*eG*eG) [compound 337363]”, the “% Inhib” value falls from 69% to 63%.

Going from “337364 (antisense eG*eG*eT*eG*eA*dG*dG*dG*dA*d[5mC]*dT*d[5mC]*dA*dA*dA*e[5mC]*eT*eG*e[5mC]*e[5mC]) [compound 337364]” to “337365 (antisense e[5mC]*eA*eG*eT*e[5mC]*dG*dT*dA*dT*d[5mC]*dT*dT*dT*d[5mC]*dT*eG*e[5mC]*eA*eG*e[5mC]) [compound 337365]”, the “% Inhib” value rises from 70% to 84%.

Going from “337366 (antisense eA*eG*eA*eT*eA*dG*d[5mC]*dA*dG*dA*dA*dG*dT*dA*dG*eG*eA*eG*eA*eT) [compound 337366]” to “337367 (antisense eA*eA*eA*eG*eT*dG*d[5mC]*d[5mC]*d[5mC]*dA*dG*dA*dT*dT*dG*e[5mC]*eT*e[5mC]*eA*eA) [compound 337367]”, the “% Inhib” value rises from 66% to 82%.

Going from “337368 (antisense eT*eT*eT*eT*eT*dA*dA*dA*dA*dG*dT*dG*d[5mC]*d[5mC]*d[5mC]*eA*eG*eA*eT*eT) [compound 337368]” to “337369 (antisense e[5mC]*eA*eG*eA*eT*d[5mC]*dA*d[5mC]*d[5mC]*d[5mC]*dA*d[5mC]*dA*dT*dT*e[5mC]*eA*e[5mC]*eT*e[5mC]) [compound 337369]”, the “% Inhib” value rises from 59% to 88%.

First: 337370 (antisense eT*eG*e[5mC]*eA*eT*dT*dT*dA*dG*dA*dT*dA*dA*dA*dA*eG*e[5mC]*eA*eG*eA) [compound 337370]
Second: 337371 (antisense eG*eA*eA*e[5mC]*eA*d[5mC]*dA*dT*d[5mC]*d[5mC]*dT*dT*dA*dT*dT*eT*eG*e[5mC]*eA*eT) [compound 337371]
The “% Inhib” value of the first is higher: 78% for the first, 76% for the second.

Going from “337372 (antisense eA*eT*e[5mC]*eA*eT*dG*dG*dG*dT*d[5mC]*dT*d[5mC]*dA*dG*dA*eG*eA*eA*e[5mC]*eA) [compound 337372]” to “337373 (antisense e[5mC]*eA*e[5mC]*eA*eT*d[5mC]*d[5mC]*d[5mC]*d[5mC]*dT*dG*dA*dT*d[5mC]*dA*eT*eG*eG*eG*eT) [compound 337373]”, the “% Inhib” value falls from 88% to 70%.

With “337374 (antisense eA*eG*eA*e[5mC]*eA*dT*dT*dT*d[5mC]*d[5mC]*dT*dT*dT*dT*dT*e[5mC]*eT*e[5mC]*e[5mC]*e[5mC]) [compound 337374]” the “% Inhib” value was 67%.
